Experimental data from patent US20120156715A1, “Environmental Sentinel Biomonitor System (ESB)” (priority 2010, published 2012).
Read-outs that look alike come from different tables or passages of the source.

Key:
RTgill-W1 cells [1] = type: cell-based, rainbow trout, Oncorhynchus mykiss
RTgill-W1 cells [2] = test: Long-term storage testing of RTgill-W1 fluidic biochips with PCP exposure (ECIS); type: cell-based, rainbow trout, Oncorhynchus mykiss; conditions: 9.4 μM
Protocol: The following description provides an example of a method for long-term testing of RTgill-W1 fluidic biochips according to an embodiment of the invention. In order to study the effects of cold storage with no media replenishment on the viability and sensitivity of the RTgill-W1 cells, fluidic biochips are seeded, held at 20° C., and media changes are performed on days 4 and 7 as described above, then held at 6° C. with no media replenishment for up to one year. Three chips are removed for viability assessment and ECIS testing using the 9.4 μM detection level for PCP (FIG. 1) at 4, 8, 12, 16, 20, 24, 32, 38, and 52 weeks and the chemical exposure procedure described above.
The following description provides an example of a method for statistical analysis according to an embodiment of the invention. A curve discrimination program using MATLAB (available from The MathWorks, Inc., Natick, Mass.) is used to perform the statistical analysis. […] This program analyzes impedance data from control and toxicant-exposed cells every minute during a 60 minute window. The overall difference between the two groups of curves is compared at each time point, and the difference between their averages is assessed relative to the within-group variability. A confidence level of […] (p<0.001) is used to establish statistical significance. Functional data analysis techniques are used to extend the standard single time point analysis of variance approach to a curve consisting of approximately 60 points. The lowest toxicant concentrations that cause a significant change in impedance in at least ten consecutive time intervals over a 60 minute period are reported as the detection levels in FIG. 1.
Unfed RTgill-W1 cells are maintained at 6° C. for different durations and subsequently tested with PCP exposures at 9.4 μM. […] The line with triangle data points and the line with square data points show, respectively, 1-hour and 4-hour average of response difference between the control and treatment channels at each respective storage time for 3 replicate fluidic biochips. Significance at each time point (p<0.001) is depicted by an * and requires a positive detection for all 3 replicate chips using the curve discrimination program. […] If the impedance patterns shown for the 12° C. and 20° C. chips are predictive indicators of the impedance patterns of the 6° C. chips, the 6° C. chips may remain viable for approximately 18 months, but most likely not beyond 2 years of storage.

[3] = one hour exposure, MEG = Military Exposure Guideline, HLC = Human Lethal Concentration, ECIS impedance

Row | Molecule | chips in which the chemical is detected (RTgill-W1 cells [1]; at levels above the HLC) | concentration at which the chemical is detected, relative to MEG and HLC (RTgill-W1 cells [1]; [3]) | change in impedance compared to controls (RTgill-W1 cells [1]) | concentration at which the chemical is detected, relative to MEG and HLC (RTgill-W1 cells [1]) | also measured
1 | C=CC#N [Acrylonitrile, acrylonitrile] | 3 out of 3 | above the HLC |  |  | 
2 | CNC(=O)O/N=C/C(C)(C)SC [aldicarb] | 3 out of 3 | above the HLC |  |  | 
3 | Cl.N [ammonia, ammonium chloride] |  |  |  |  | change in impedance compared to controls (RTgill-W1 cells [1]; one hour exposure, p<0.001): significant decrease
4 | [N-]=[N+]=[N-] [azide] |  |  | significant decrease | between the MEG and the HLC | 
5 | O=S(=O)([O-])[O-].[Cu+2] [copper, copper sulfate] |  |  | increased impedance | between the MEG and the HLC | 
6 | O=C([O-])CF.[Na+] [fluoroacetate, sodium fluoroacetate] |  |  |  | above the HLC | chips in which the chemical is detected (RTgill-W1 cells [1]): 3 out of 3
7 | COP(N)(=O)SC (stereo not drawn) [methamidophos] | 3 out of 3 | above the HLC |  |  | 
8 | COP(=S)(OC)Oc1ccc([N+](=O)[O-])cc1 [methyl parathion] |  |  | significant decrease | between the MEG and the HLC | 
9 | CN1CCCC1c1cccnc1 (stereo not drawn) [nicotine] |  |  |  | above the HLC | chips in which the chemical is detected (RTgill-W1 cells [1]): 3 out of 3
10 | C[n+]1ccc(-c2cc[n+](C)cc2)cc1 [paraquat, paraquat dichloride] | 3 out of 3 | above the HLC |  |  | 
11 | Oc1c(Cl)c(Cl)c(Cl)c(Cl)c1Cl [pentachlorophenate, sodium pentachlorophenate] |  | between the MEG and the HLC |  |  | detection level (RTgill-W1 cells [1]; lowest concentration causing significant impedance change in at least ten consecutive time intervals over 60 minutes): 9.4 µM; change in impedance compared to controls (RTgill-W1 cells [1]; one hour exposure, p<0.001): significant decrease; responsiveness after one year storage (RTgill-W1 cells [2]; 1 hour and 4 hour exposures, one year storage at 6° C.): significantly responsive; response to PCP exposure (RTgill-W1 cells [2]; chips stored at 6° C. unfed, all storage time points indicated): positive response; significance of response, 4 hours exposure (RTgill-W1 cells [2]; storage at 6° C., additional at 140 and 266 days, p<0.001, 3 replicate chips): significant responses; significance of response, 1 hour exposure (RTgill-W1 cells [2]; storage at 6° C., time points of 14-114 days and 364 days, p<0.001, 3 replicate chips): significant
12 | Oc1ccccc1 [phenol] |  |  |  | above the HLC | chips in which the chemical is detected (RTgill-W1 cells [1]): 3 out of 3
13 | O=S(=O)([O-])[O-].[Tl+].[Tl+] [thallium, thallium sulfate] | 3 out of 3 | above the HLC |  |  | 
14 | Cc1ccccc1 [toluene] |  |  | significant decrease | between the MEG and the HLC | 
15 | mercuric chloride [mercury] |  |  | significant decrease | between the MEG and the HLC | 
16 | sodium arsenite [arsenic] |  |  | significant decrease | between the MEG and the HLC | 
